According to patent US11124881B2, “Hydrophilic metal surface treatment agent” (CHEMICAL DENSHI CO., LTD., priority 2019, dated 2021):

Assay: Water-solubility test
Assay type: physicochemical
Protocol: The hydrophilic metal surface treatment agent (Compound 21) (MW 608.86, 0.32 g) produced in Example 3 was added to ultrapure water (50.09 g), and the mixture was stirred after the water temperature was heated to 60° C.
With respect to even the hydrophilic metal surface treatment agent having an octadecyl group, i.e. n-C18H37, as a long chain hydrocarbon group, an aqueous solution having a concentration of 10.32 mM could be prepared.

Compound: CCCCCCCCCCCCCCCCCCSC(=O)CCC(=O)NC(COC(COC(CO)CO)COC(CO)CO)COC(COC(CO)CO)COC(CO)CO [Compound 21]
- visible undissolved residue (0.32 g in ultrapure water 50.09 g, stirred at 60° C., after 3 hours): no visible undissolved residue
- concentration of aqueous solution that could be prepared (ultrapure water, 60° C., no surfactant or solubilizing agent): 10320 µM
